Laboratory results taken from US20260193293A1, “PEPTIDES CAPABLE OF INHIBITING PROTEIN-PROTEIN INTERACTIONS AT GABAB1A SUBUNIT AND USES THEREOF” (UNIVERSITY OF COPENHAGEN, priority 2022, published 2026).
Where two headings read alike, the source gives them in different places. One block for each molecule: values may come before it. Non-standard residues stand in square brackets, D forms with d. Residues, ends and D or L forms follow the SMILES beside them. NMeD = CN[C@@H](CC(=O)O)C(=O)O; Sar = CNCC(=O)O

Target: Sushi domains (SD1/2) protein
Test: Fluorescence polarization (FP) competition assay with AJAP-1probe, calculated Ki
Type: binding
Description: Fluorescence polarization (FP). FP assay was employed to determine the binding affinity of peptides in flat bottom black 384-well plates (Corning Life Science) using a Safire2 plate reader (Tecan). All experiments were conducted in 1×PBS (pH 7.4) containing 1% bovine serum albumin (BSA) at rt. The fluorescence polarization values were measured using excitation/emission wavelengths of 530/580 nm. The instrumental Z-factor was adjusted to obtain the maximum fluorescence intensity and the G-factor was calibrated to give an initial millipolarization value of 20 mP. All FP assays including saturation or competition experiments were performed using 25 nM of TAMRA labeled peptides as probes. For saturation assay, the millipolarization values were measured after mixing of probes with 12 serial 1 to 1 diluted concentrations of Sushi domains (SD1/2) protein. All experiments were performed in triplicate and the data were plotted to the one-site binding model using GraphPad Prism 9 to calculate the Kd of probes. […] The experiments were performed at least in triplicate and the data were fitted to the sigmoidal dose response curve using GraphPad Prism 9 to obtain the IC50 of peptides. The Ki values were calculated according to Nikolovska-Coleska et al^310.

[1] = Table 14, CPPs tagged peptides, read-out: Ki (nM) mean ± SEM
[2] = Table 8, Ala-, D-amino acids and N-methylation scans of AJAP-1WT, read-out: Ki (nM) mean ± SEM
[3] = Table 9, Ala-, D-amino acids and N-methylation scans of PIANPWT, read-out: Ki (nM) mean ± SEM
[4] = Table 4, truncation and elongation scans of APP epitope, read-out: Ki (nM) mean ± SEM

Ki (Table 5, elongation and truncation scan of AJAP-1 binding epitope, read-out: Ki (nM) mean ± SEM): 574 ± 7 nM
SMILES: CC[C@H](C)[C@H](NC(=O)[C@H](Cc1ccccc1)NC(=O)[C@H](CCC(=O)O)NC(=O)[C@@H](NC(=O)[C@H](CCC(=O)O)NC(=O)[C@@H](NC(C)=O)[C@@H](C)O)[C@@H](C)O)C(=O)N[C@@H](C)C(=O)N[C@@H](Cc1c[nH]c2ccccc12)C(=O)NCC(=O)N1CCC[C@H]1C(N)=O (Ac-TETEFIAWGP-NH2)

Ki (CPP tagged peptides overview, SD1/2 binding affinity, mean ± SEM, n ≥ 3, read-out: Ki): 140 ± 4 nM | Ki [1]: 140 ± 4 nM
SMILES: CC[C@H](C)[C@H](NC(=O)[C@H](Cc1c[nH]c2ccccc12)NC(=O)[C@H](CC(=O)O)NC(=O)[C@H](CC(=O)O)NC(=O)[C@H](CC(=O)O)NC(=O)[C@H](CCC(=O)O)NC(=O)[C@H](CO)NC(=O)CNC(=O)CNC(=O)CNC(=O)CNC(=O)[C@H](CCCNC(=N)N)NC(=O)[C@H](CCCNC(=N)N)NC(=O)[C@H](CCCNC(=N)N)NC(=O)[C@H](CCCNC(=N)N)NC(=O)[C@H](CCCNC(=N)N)NC(=O)[C@H](CCCNC(=N)N)NC(=O)[C@H](CCCNC(=N)N)NC(=O)[C@H](CCCNC(=N)N)NC(C)=O)C(=O)N[C@@H](CC(=O)O)C(=O)N[C@@H](Cc1c[nH]c2ccccc12)C(=O)NCC(=O)N1CCC[C@H]1C(=O)N[C@H](C(=O)N[C@@H](CO)C(=O)N[C@@H](CC(=O)O)C(=O)N[C@@H](CC(=O)O)C(=O)N[C@@H](CC(=O)O)C(N)=O)[C@@H](C)O [Peptide R8-FL-17] (Ac-RRRRRRRRGGGGSEDDDWIDWGPTSDDD-NH2)

Ki [1]: 32 ± 1 nM
SMILES: CC[C@H](C)[C@H](NC(=O)[C@H](Cc1c[nH]c2ccccc12)NC(=O)[C@H](CC(=O)O)NC(=O)[C@H](CC(=O)O)NC(=O)[C@H](CC(=O)O)NC(=O)[C@H](CCC(=O)O)NC(=O)[C@H](CCCNC(=N)N)NC(=O)[C@H](CCCNC(=N)N)NC(=O)[C@H](CCCNC(=N)N)NC(=O)[C@H](CCCNC(=N)N)NC(=O)[C@H](CCCNC(=N)N)NC(C)=O)C(=O)N[C@@H](CC(=O)O)C(=O)N[C@@H](Cc1c[nH]c2ccccc12)C(=O)NCC(=O)N1CCC[C@H]1C(=O)N[C@H](C(=O)N[C@@H](CO)C(=O)N[C@@H](CC(=O)O)C(=O)N[C@@H](CC(=O)O)C(=O)N[C@@H](CC(=O)O)C(N)=O)[C@@H](C)O (Ac-RRRRREDDDWIDWGPTSDDD-NH2)

Ki [2]: 29 ± 1 nM
SMILES: CC[C@H](C)[C@H](NC(=O)[C@H](Cc1ccccc1)NC(=O)[C@H](CCC(=O)O)NC(=O)[C@@H](NC(=O)[C@H](CCC(=O)O)NC(C)=O)[C@@H](C)O)C(=O)N[C@@H](C)C(=O)N[C@@H](Cc1c[nH]c2ccccc12)C(=O)NCC(=O)N1CCC[C@H]1C(=O)N[C@H](C(=O)NCC(=O)N[C@@H](CC(=O)O)C(=O)N[C@@H](CCC(=O)O)C(=O)N(C)[C@@H](CC(=O)O)C(N)=O)[C@@H](C)O (Ac-ETEFIAWGPTGDE[NMeD]-NH2)

Ki (Table 12, deep mutational scanning validation variants of PIANPWT, read-out: Ki (nM) mean ± SEM): 412 ± 20 nM
SMILES: CC[C@H](C)[C@H](NC(=O)[C@H](C)NC(=O)[C@H](Cc1c[nH]c2ccccc12)NC(=O)[C@@H](NC(C)=O)C(C)C)C(=O)N[C@H](C(=O)N[C@@H](Cc1c[nH]c2ccccc12)C(=O)NCC(=O)N1CCC[C@H]1C(=O)N[C@H](C(=O)N[C@H](C(=O)N[C@@H](CO)C(=O)N[C@@H](CCCNC(=N)N)C(=O)N[C@@H](CCC(=O)O)C(=O)N[C@@H](CC(=O)O)C(N)=O)C(C)C)[C@@H](C)O)C(C)C [VWAIVWGPTVSRED] (Ac-VWAIVWGPTVSRED-NH2)

Ki [3]: 58300 ± 4410 nM
SMILES: CC[C@H](C)[C@H](NC(=O)[C@H](C)NC(=O)[C@H](Cc1c[nH]c2ccccc12)NC(=O)[C@@H]1CCCN1C(C)=O)C(=O)N[C@H](C(=O)N[C@@H](Cc1c[nH]c2ccccc12)C(=O)N(C)CC(=O)N1CCC[C@H]1C(=O)N[C@H](C(=O)N[C@H](C(=O)N[C@@H](CO)C(=O)N[C@@H](CCCNC(=N)N)C(=O)N[C@@H](CCC(=O)O)C(=O)N[C@@H](CC(=O)O)C(N)=O)C(C)C)[C@@H](C)O)C(C)C [PWAIVW(N-Me-G)PTVSRED] (Ac-PWAIVW[Sar]PTVSRED-NH2)

Ki [3]: 1462 ± 14 nM
SMILES: CC[C@H](C)[C@H](NC(=O)[C@H](C)NC(=O)[C@H](Cc1c[nH]c2ccccc12)NC(=O)[C@@H]1CCCN1C(C)=O)C(=O)N[C@@H](C)C(=O)N[C@@H](Cc1c[nH]c2ccccc12)C(=O)NCC(=O)N1CCC[C@H]1C(=O)N[C@H](C(=O)N[C@H](C(=O)N[C@@H](CO)C(=O)N[C@@H](CCCNC(=N)N)C(=O)N[C@@H](CCC(=O)O)C(=O)N[C@@H](CC(=O)O)C(N)=O)C(C)C)[C@@H](C)O [PWAIAWGPTVSRED]

Ki [4]: 351 ± 26 nM
SMILES: CC(=O)N[C@@H](CCC(=O)O)C(=O)N[C@@H](CCC(=O)O)C(=O)N[C@@H](CC(=O)O)C(=O)N[C@@H](CC(=O)O)C(=O)N[C@@H](CO)C(=O)N[C@@H](CC(=O)O)C(=O)N[C@H](C(=O)N[C@@H](Cc1c[nH]c2ccccc12)C(=O)N[C@@H](Cc1c[nH]c2ccccc12)C(=O)NCC(=O)NCC(=O)N[C@@H](C)C(=O)N[C@@H](CC(=O)O)C(=O)N[C@H](C(=O)N[C@@H](CC(=O)O)C(=O)N[C@@H](Cc1ccc(O)cc1)C(=O)N[C@@H](C)C(=O)N[C@@H](CC(=O)O)C(=O)NCC(=O)NCC(=O)N[C@@H](CCC(=O)O)C(N)=O)[C@@H](C)O)C(C)C (Ac-EEDDSDVWWGGADTDYADGGE-NH2)

Ki [3]: 318 ± 3 nM
SMILES: CC[C@H](C)[C@H](NC(=O)[C@H](C)NC(=O)[C@H](Cc1c[nH]c2ccccc12)NC(=O)[C@@H]1CCCN1C(C)=O)C(=O)N[C@H](C(=O)N[C@@H](Cc1c[nH]c2ccccc12)C(=O)NCC(=O)N1CCC[C@H]1C(=O)N[C@H](C(=O)N[C@@H](C)C(=O)N[C@@H](CO)C(=O)N[C@@H](CCCNC(=N)N)C(=O)N[C@@H](CCC(=O)O)C(=O)N[C@@H](CC(=O)O)C(N)=O)[C@@H](C)O)C(C)C [PWAIVWGPTASRED] (Ac-PWAIVWGPTASRED-NH2)

Ki [4]: 284 ± 5 nM
SMILES: CC(=O)N[C@@H](CO)C(=O)N[C@@H](C)C(=O)N[C@@H](CC(=O)O)C(=O)N[C@@H](C)C(=O)N[C@@H](CCC(=O)O)C(=O)N[C@@H](CCC(=O)O)C(=O)N[C@@H](CC(=O)O)C(=O)N[C@@H](CC(=O)O)C(=O)N[C@@H](CO)C(=O)N[C@@H](CC(=O)O)C(=O)N[C@H](C(=O)N[C@@H](Cc1c[nH]c2ccccc12)C(=O)N[C@@H](Cc1c[nH]c2ccccc12)C(=O)NCC(=O)NCC(=O)N[C@@H](C)C(=O)N[C@@H](CC(=O)O)C(=O)N[C@H](C(=O)N[C@@H](CC(=O)O)C(=O)N[C@@H](Cc1ccc(O)cc1)C(=O)N[C@@H](C)C(=O)N[C@@H](CC(=O)O)C(N)=O)[C@@H](C)O)C(C)C (Ac-SADAEEDDSDVWWGGADTDYAD-NH2)

Ki [4]: 2950 ± 82 nM
SMILES: CC(=O)N[C@@H](CO)C(=O)N[C@@H](CC(=O)O)C(=O)N[C@H](C(=O)N[C@@H](Cc1c[nH]c2ccccc12)C(=O)N[C@@H](Cc1c[nH]c2ccccc12)C(=O)NCC(=O)NCC(=O)N[C@@H](C)C(=O)N[C@@H](CC(=O)O)C(=O)N[C@H](C(=O)N[C@@H](CC(=O)O)C(=O)N[C@@H](Cc1ccc(O)cc1)C(=O)N[C@@H](C)C(=O)N[C@@H](CC(=O)O)C(N)=O)[C@@H](C)O)C(C)C (Ac-SDVWWGGADTDYAD-NH2)

Ki [2]: 38 ± 1 nM
SMILES: CC[C@H](C)[C@H](NC(=O)[C@H](Cc1ccccc1)NC(=O)[C@H](CCC(=O)O)NC(=O)[C@@H](NC(=O)[C@H](CCC(=O)O)NC(C)=O)[C@@H](C)O)C(=O)N[C@@H](C)C(=O)N[C@@H](Cc1c[nH]c2ccccc12)C(=O)NCC(=O)N1CCC[C@H]1C(=O)N[C@H](C(=O)NCC(=O)N[C@@H](CC(=O)O)C(=O)N[C@@H](C)C(=O)N[C@@H](CC(=O)O)C(N)=O)[C@@H](C)O (Ac-ETEFIAWGPTGDAD-NH2)
